Assay results as given in ChEMBL document CHEMBL3885881, “DrugMatrix”.

Species on record: Rattus norvegicus
Experiment: DrugMatrix - Regimen: Daily Repeat
Type: toxicity, organism-based, Sprague-Dawley
Parameters: regimen Daily Repeat, gender Male, age 6-8 weeks
Conditions: in vivo, iv, vehicle 100 % SALINE; for ABSOLUTE BASOPHIL / ABSOLUTE EOSINOPHIL / ABSOLUTE LYMPHOCYTE / ABSOLUTE MONOCYTE / ABSOLUTE SEGMENTED NEUTROPHIL / BASOPHIL / EOSINOPHIL / ERYTHROCYTE COUNT / HEMATOCRIT / HEMOGLOBIN / LEUKOCYTE COUNT / LYMPHOCYTE / MEAN CORPUSCULAR HEMOGLOBIN / MEAN CORPUSCULAR HEMOGLOBIN CONCENTRATION / MEAN CORPUSCULAR VOLUME / MONOCYTE / NEUTROPHIL / NUCLEATED RED BLOOD CELLS / PLATELET COUNT: tissue Blood; for ALANINE AMINOTRANSFERASE / ALBUMIN / ALKALINE PHOSPHATASE / ASPARTATE AMINOTRANSFERASE / BLOOD UREA NITROGEN / CARBON DIOXIDE / CHLORIDE / CHOLESTEROL / CREATINE PHOSPHOKINASE / CREATININE / GLUCOSE / LACTATE DEHYDROGENASE / LIPASE / PHOSPHORUS / POTASSIUM / SODIUM / TOTAL BILIRUBIN / TOTAL PROTEIN / URIC ACID: tissue Plasma
[1] = 0 mg/kg, 72 h, dose level Control, time 3 day
[2] = 0 mg/kg, 120 h, dose level Control, time 5 day
[3] = 10 mg/kg, 72 h, dose level Low, time 3 day

## O=C(O)P(=O)(O)O [FOSCARNET]
[1]
  ABSOLUTE BASOPHIL: 0 CELLS/uL
  ABSOLUTE EOSINOPHIL: 247.67 CELLS/uL
  ABSOLUTE LYMPHOCYTE: 13190.83 CELLS/uL
  ABSOLUTE MONOCYTE: 307.67 CELLS/uL
  ABSOLUTE SEGMENTED NEUTROPHIL: 1220.5 CELLS/uL
  BASOPHIL: 0%
  EOSINOPHIL: 1.67%
  ERYTHROCYTE COUNT: 5.47 x10E6/uL
  HEMATOCRIT: 33.98%
  HEMOGLOBIN: 12.65 G/DL
  LEUKOCYTE COUNT: 14.97 x10E3/uL
  LYMPHOCYTE: 88.17%
  MEAN CORPUSCULAR HEMOGLOBIN: 23.17 pg
  MEAN CORPUSCULAR HEMOGLOBIN CONCENTRATION: 37.23 G/DL
  MEAN CORPUSCULAR VOLUME: 62.25 fL
  MONOCYTE: 2%
  NEUTROPHIL: 8.17%
  NUCLEATED RED BLOOD CELLS: 0 /100WBC
  PLATELET COUNT: 1307.17 x10E3/uL
  ALANINE AMINOTRANSFERASE: 39.67 u/L
  ALBUMIN: 4.08 G/DL
  ALKALINE PHOSPHATASE: 383.17 u/L
  ASPARTATE AMINOTRANSFERASE: 88.83 u/L
  BLOOD UREA NITROGEN: 18.5 mg/dL
  CARBON DIOXIDE: 27.5 mmol/L
  CHLORIDE: 103 MEQ/L
  CHOLESTEROL: 67.33 mg/dL
  CREATINE PHOSPHOKINASE: 414.67 u/L
  CREATININE: 0.19 mg/dL
  GLUCOSE: 149.33 mg/dL
  LACTATE DEHYDROGENASE: 536.83 u/L
  LIPASE: 8.83 u/L
  PHOSPHORUS: 11.13 mg/dL
  POTASSIUM: 6.23 MEQ/L
  SODIUM: 144.42 MEQ/L
  TOTAL BILIRUBIN: 0.18 mg/dL
  TOTAL PROTEIN: 5.57 G/DL
  URIC ACID: 1.23 mg/dL
[2]
  ABSOLUTE BASOPHIL: 0 CELLS/uL
  ABSOLUTE EOSINOPHIL: 158.83 CELLS/uL
  ABSOLUTE LYMPHOCYTE: 13517.17 CELLS/uL
  ABSOLUTE MONOCYTE: 352.67 CELLS/uL
  ABSOLUTE SEGMENTED NEUTROPHIL: 1104.67 CELLS/uL
  BASOPHIL: 0%
  EOSINOPHIL: 1%
  ERYTHROCYTE COUNT: 5.73 x10E6/uL
  HEMATOCRIT: 36.85%
  HEMOGLOBIN: 13.67 G/DL
  LEUKOCYTE COUNT: 15.13 x10E3/uL
  LYMPHOCYTE: 89.5%
  MEAN CORPUSCULAR HEMOGLOBIN: 23.87 pg
  MEAN CORPUSCULAR HEMOGLOBIN CONCENTRATION: 37.1 G/DL
  MEAN CORPUSCULAR VOLUME: 64.33 fL
  MONOCYTE: 2.33%
  NEUTROPHIL: 7.17%
  NUCLEATED RED BLOOD CELLS: 0.17 /100WBC
  PLATELET COUNT: 1266 x10E3/uL
  ALANINE AMINOTRANSFERASE: 49.17 u/L
  ALBUMIN: 4.22 G/DL
  ALKALINE PHOSPHATASE: 352.67 u/L
  ASPARTATE AMINOTRANSFERASE: 95.17 u/L
  BLOOD UREA NITROGEN: 18.83 mg/dL
  CARBON DIOXIDE: 25.67 mmol/L
  CHLORIDE: 102.67 MEQ/L
  CHOLESTEROL: 66.83 mg/dL
  CREATINE PHOSPHOKINASE: 550.33 u/L
  CREATININE: 0.23 mg/dL
  GLUCOSE: 186.17 mg/dL
  LACTATE DEHYDROGENASE: 471.33 u/L
  LIPASE: 8.67 u/L
  PHOSPHORUS: 12.3 mg/dL
  POTASSIUM: 6.35 MEQ/L
  SODIUM: 143.57 MEQ/L
  TOTAL BILIRUBIN: 0.18 mg/dL
  TOTAL PROTEIN: 6.05 G/DL
  URIC ACID: 2 mg/dL
[3]
  ABSOLUTE BASOPHIL: 0 CELLS/uL
  ABSOLUTE EOSINOPHIL: 119 CELLS/uL
  ABSOLUTE LYMPHOCYTE: 13526 CELLS/uL
  ABSOLUTE MONOCYTE: 339.33 CELLS/uL
  ABSOLUTE SEGMENTED NEUTROPHIL: 1849 CELLS/uL
  BASOPHIL: 0%
  EOSINOPHIL: 1%
  ERYTHROCYTE COUNT: 5.59 x10E6/uL
  HEMATOCRIT: 35.27%
  HEMOGLOBIN: 13.4 G/DL
  LEUKOCYTE COUNT: 15.83 x10E3/uL
  LYMPHOCYTE: 86%
  MEAN CORPUSCULAR HEMOGLOBIN: 24.03 pg
  MEAN CORPUSCULAR HEMOGLOBIN CONCENTRATION: 38 G/DL
  MEAN CORPUSCULAR VOLUME: 63.2 fL
  MONOCYTE: 2%
  NEUTROPHIL: 11%
  NUCLEATED RED BLOOD CELLS: 0.33 /100WBC
  PLATELET COUNT: 1244.67 x10E3/uL
  ALANINE AMINOTRANSFERASE: 51.33 u/L
  ALBUMIN: 4.37 G/DL
  ALKALINE PHOSPHATASE: 431.67 u/L
  ASPARTATE AMINOTRANSFERASE: 102 u/L
  BLOOD UREA NITROGEN: 16.67 mg/dL
  CARBON DIOXIDE: 26.67 mmol/L
  CHLORIDE: 102 MEQ/L
  CHOLESTEROL: 79.67 mg/dL
  CREATINE PHOSPHOKINASE: 558.33 u/L
  CREATININE: 0.23 mg/dL
  GLUCOSE: 150.33 mg/dL
  LACTATE DEHYDROGENASE: 837 u/L
  LIPASE: 9.33 u/L
  PHOSPHORUS: 11.7 mg/dL
  POTASSIUM: 6.65 MEQ/L
  SODIUM: 144.07 MEQ/L
  TOTAL BILIRUBIN: 0.23 mg/dL
  TOTAL PROTEIN: 5.83 G/DL
  URIC ACID: 1.27 mg/dL
